We go through 1 compound from patent publication US7939554B2, “Protein phosphatase inhibitors” (The Cleveland Clinic Foundation, priority 2006, dated 2011).

One test relates to human peripheral blood. The test is described as follows: induction of IFNγ+ cells in human peripheral blood in vitro (ELISPOT). The test is classed as cell-based. The procedure:
For induction of human primary IFNγ+ cells, heparinized peripheral blood samples were obtained by vein-puncture from healthy volunteers following an established protocol approved by the Institutional Review Board (IRB) of Cleveland Clinic. To mimic in vivo drug-exposure, human peripheral blood samples were directly treated with different agents without pre-separation of white blood cells from other blood components. Blood samples (0.1 ml/sample) were mixed with the agents, incubated at 37° C. for 4 hrs, diluted with 5 volumes of hypotonic solution (10 mM Tris, pH 7.4; 10 mM NaCl) to lyse RBC and centrifuged to pellet WBCs. The pellets were washed with hypotonic solution one time, re-suspended in RPMI 1640 medium (10% FCS) and used for ELISPOT assays (Human IFNγ ELISPOT Kit, R & D System) to quantify human IFNγα cells as outlined above.

The subject of a further test is B16 melanoma tumors. The test is described as follows: B16 melanoma tumor growth in athymic nude mice. It counts as in vivo, mouse. To be noted: 3 mg/kg/day, oral.
A further test concerns the target T1, SHP-2 (Homo sapiens, UniProt Q06124).
T1 sequence (Q06124 1-593): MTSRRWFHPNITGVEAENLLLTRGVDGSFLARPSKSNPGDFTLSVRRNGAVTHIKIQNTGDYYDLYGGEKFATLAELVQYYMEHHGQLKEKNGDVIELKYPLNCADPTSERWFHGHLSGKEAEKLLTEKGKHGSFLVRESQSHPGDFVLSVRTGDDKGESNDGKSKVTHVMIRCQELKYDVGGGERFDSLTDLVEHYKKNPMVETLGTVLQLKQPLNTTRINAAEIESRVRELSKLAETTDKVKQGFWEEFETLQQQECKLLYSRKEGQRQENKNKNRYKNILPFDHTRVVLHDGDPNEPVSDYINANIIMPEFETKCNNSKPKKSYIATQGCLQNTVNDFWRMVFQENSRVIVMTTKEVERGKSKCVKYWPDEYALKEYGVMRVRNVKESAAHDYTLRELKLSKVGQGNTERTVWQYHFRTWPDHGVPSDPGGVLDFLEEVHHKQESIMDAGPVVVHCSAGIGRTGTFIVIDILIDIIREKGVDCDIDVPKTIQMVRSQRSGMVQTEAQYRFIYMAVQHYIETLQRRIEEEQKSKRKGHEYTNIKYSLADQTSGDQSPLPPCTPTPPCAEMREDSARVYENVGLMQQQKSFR
The test is described as follows: pERK1/2 levels in L5-treated Jurkat cells. The test is classed as cell-based. To be noted: not at lower doses (0.1 to 0.001 μg/ml). Also on record: endogenous in cells; host or cells: Jurkat. The procedure:
Jurkat cells in culture medium (3×10^6 cells/ml, 1 ml/tube) were treated with agents for designated times at room temperature. After brief centrifuging in a microfuge (4,000 rpm, 2 min), the cell pellet was lysed on ice for 30 min in […] of cold lysis buffer (1% NP40, 50 mM Tris, pH 7.4, 150 mM NaCl, 20 mM NaF, 0.2 mM Na3VO4 and 1 mM Na3MO4) containing a cocktail of proteinase inhibitors (Sigma, 1 tablet/10 ml). The lysates were cleared by centrifuging (14,000 rpm, 10 min) in a microfuge at 4° C. to remove insoluble parts, mixed with equal volume of 2×SDS-PAGE sample buffer, boiled for 5 min and analyzed (˜3×10^5 cells/well) by SDS-PAGE/Western blotting. Relative intensities of phosphotyrosine bands were quantified through densitometry analysis.
To assess the effects of L5 on other phosphatases, pERK1/2 and pLck-pY505 in L5-treated Jurkat cells were quantified. SHP-2 is known to be a positive mediator of pERK1/2 whereas pLck-pY505 is dephosphorylated by PTPase CD45.

Test [1] relates to spleen pLck and IFNγ+ cells. The test is described as follows: in vivo induction of spleen pLck and IFNγ+ cells in mice. The arrangement: species or system mouse. The procedure: Spleens were harvested one hour post-treatment on day 4 and processed into splenocytes, which were used for assessing pLck levels by SDS-PAGE/Western blotting and for quantification of IFNγ+ cells by ELISPOT assays. Mice were also treated with L5 (˜10 mg/kg body weight, daily, s. c., n=2) to evaluate the toxicity of the compounds in vivo.

Setting [2] is: ~3 mg/kg body weight, s.c., daily, 4 days.

Description for B16 melanoma tumors: To assess L5 anti-tumor activity, C57BL/6J mice or athymic nude mice (˜8-week old, female, Taconic Farms, Germantown, N.Y.) were inoculated (s.c.) at the flanks with B16 melanoma cells (4×10^4 cells/site). Four days post-inoculation, the mice were treated with PBS (Control) or L5 (˜3 mg/kg body weight/daily, Monday-Friday/week, oral gavage). Tumor volume (n=5) was measured during the study period and calculated using the formula for a prolate spheroid. Student's t test was used for assessing the significance of tumor volume differences among differential treatment groups. Mouse viability (daily) and body weights (weekly) were also recorded during the study period. Major internal organs of the mice were inspected visually upon their termination at the end of the experiment.

In the case of `O=C1C=CC(=O)C(c2cc(Cl)ccc2Cl)=C1` [L5], the “maximal induction of IFNγ+ cells in human peripheral blood” value in the test on human peripheral blood (8 μg/ml) was found to be 20 fold. In the test with human peripheral blood (maximal induction at a comparable dose, human peripheral blood), the “effectiveness relative to SSG in inducing IFNγ+ cells” value is reported as roughly 20 fold. In addition, the “B16 tumor growth in T-cell-deficient mice” value in the test with B16 melanoma tumors is given as “not inhibited”. Further, the “dose reducing pERK1/2 levels” value on SHP-2 is given as 1 μg/ml. Moreover, the “effect on splenocyte pLck in treated mice” value in test [1] (1 mg/kg of body weight) is given as “minor effect”. For the same compound, in test [1] (setting [2]), the “spleen IFNγ+ cells increase in treated mice” value was “approximately 3 fold” and the “splenocyte pLck increase in treated mice” value was roughly 3.3 fold.
